Data taken from patent US20060025448A1, “Hair growth stimulators” (CADILA HEALTHCARE LIMITED, priority 2004, published 2006).

Tests used:
male C57BL/6J mice = test: Effect on hair growth (bald area) in high-fat diet fed male C57BL/6J mice; format: in vivo; conditions: 10 mg/kg orally; for growth of body hair (in words): high-fat diet fed male C57BL/6 mice, 28 days
Method: (§1) The C57BL/6 mice were housed on a lightdark cycle in a room with temperature (22±2° C.) and humidity control. They were fed either a high-fat diet (HFD) (49% fat, 18% protein, 33% carbohydrate) or a standard mouse diet (STD) (8% fat, 19% protein, 73% carbohydrate). Six-week-old C57BL/6J male mice were given HFD or STD diets for 17 wks before drug treatment started. […] After this, mice were weighed and treated as per the following three groups, while the diet treatment continued.
(§2) High-fat diet fed & vehicle treated (HFD-V), • High-fat diet fed & treated with 10 mg/kg Compound 2 (HFD-R 10 mg) • High-fat diet fed & treated with 10 mg/kg Compound 1 (HD-ZY 10 mg) • Compound 1 and Compound 2 were administered orally in distilled water with 0.1% Tween 80 one hour before the onset of the dark phase.
(§3) The animals were observed daily. Body weights were recorded daily, and the animals were photographed on 28th day on the back, The results are mentioned in Table 1 and Table 2.

[1] = Effect on body weight in high-fat diet fed male C57BL/6J mice; format: in vivo; conditions: for effect on body weight (in words): high-fat diet fed male C57BL/6 mice
Method: as §1, §2, §3

Cc1c(C(=O)NN2CCCCC2)nn(-c2ccc(Cl)cc2Cl)c1-c1ccc(Cl)s1.Cl [Compound 1, Hydrochloride salt of 5-(5-Chloro-thiophen-2-yl)-1-(2,4-dichloro-phenyl)-4-methyl-1H-pyrazole-3-caxboxylic acid piperidin-1-ylamide]
bald area (where hair growth or pigmentation has not appeared), Area (Mean ± Standard Error Mean) (male C57BL/6J mice; high-fat diet fed male C57BL/6J mice, after 28th day of dosing, n = 6): 0.011 ± 0.223 cm^2
growth of body hair (in words) (male C57BL/6J mice; 10 mg/kg): significantly enhanced the growth of body hair
growth of body hair (in words) (male C57BL/6J mice; listed as compound 1, 10 mg/kg): able to stimulate hair growth
Change in Body Weight in 28 days versus Day 0 ([1]; high-fat diet fed male C57BL/6J mice, 10 mg/kg orally, 28 days, n = 6): -1.7 ± 0.5 g
Body Weight on Day 28 ([1]; high-fat diet fed male C57BL/6J mice, 10 mg/kg orally, Day 28, n = 6): 26.9 ± 1.1 g
Change in Body Weight versus HFD-V ([1]; high-fat diet fed male C57BL/6J mice, 10 mg/kg orally, versus vehicle group, n = 6): -3.3 ± 1.8 g
Body Weight on Day 0 ([1]; high-fat diet fed male C57BL/6J mice, Day 0 (baseline before treatment), n = 6): 29.2 ± 1.1 g
effect on body weight (in words) ([1]; 10 mg/kg orally, 28 days, 10 mg/kg): decrease in body weight
effect on body weight (in words) ([1]; 10 mg/kg orally, 28 days, listed as compound 1, 10 mg/kg): decreasing body weight
